Test results from patent US20250002450A1, “CATIONIC STEROID COMPOUNDS, METHOD OF OBTAINING THEREOF, FORMULATIONS COMPRISING THEREOF AND THEIR USES” (UNIVERSIDADE DO PORTO, priority 2021, published 2025).
Values after ≈ are worked out from the molar mass of the structure shown. Like-named read-outs stand apart in the source and are kept apart here.

Test system: C. krusei ATCC 6258
Assay: Antifungal MIC/MLC (broth microdilution)
Type: cell-based, Candida krusei
Protocol: The antifungal activity of compound 1 was evaluated for a wide range of fungal species, covering yeasts and filamentous fungi, including dermatophytes. […] This antimicrobial effect was fungicidal, with minimal lethal concentrations (MLC) being equal to, or one or two-fold higher than the respective MIC. Twenty-three fungal strains were used in this study, including reference strains and clinical isolates of yeasts and filamentous fungi. Yeast strains included reference strains (ATCC—American Type Culture Collection and CECT—Colección Española de Cultivos Tipo) and clinical isolates: C. albicans ATCC 10231, Candida krusei ATCC 6258, C. albicans H37, C. albicans FF172, C. albicans FF176, C. albicans DSY294, C. albicans DSY296, C. glabrata DSY562, C. glabrata DSY565 and Cryptococcus neoformans CECT 1078. Filamentous fungi included Aspergillus fumigatus ATCC 240305, A. fumigatus C111, A. niger ATCC 16404, A. flavus F44, Fusarium solani FF125, F. oxysporum FF115, and dermatophytes Trichophyton rubrum FF5, T. mentagrophytes FF7, Microscoporum canis FF1 and Nannizzia gypsea FF3 (formerly Microsporum gypseum) and a species of genera Mucor, Lichetheimia and Scedosporium. Saprolegnia parasitica CBS 223.65, a reference strain of an oomycete fish pathogen, was also included. All microorganisms were kept in Sabouraud Dextrose Broth (SDB: BioMérieux, Marcy L'Etoile, France) plus glycerol (20%) at −80° C. The strains were kept in Sabouraud Dextrose Agar (SDA: BioMérieux, Marcy L'Etoile, France) slants and were sub-cultured in SDA before each test. S. parasitica was kept in Corn Meal Agar plates (CMA: BBL™ Corn Meal Agar, BD, Le Pont-de-Claix, France) and was sub-cultured in CMA before each experiment. C. albicans H37, was kindly provided by Cidilia Pina Vaz (CHSJ, Porto, Portugal) and C. albicans DSY294, C. albicans DSY296, C. glabrata DSY562, C. glabrata DSY565 were kindly provided by D. Sanglard (University of Lausanne, Switzerland). A stock solution of compound 1 (10 mg/mL), was prepared in dimethyl sulfoxide (DMSO 99%: Alfa Aesar, Kandel, Germany), kept at −20 degrees C., and freshly diluted in the appropriate culture media before each assay. In all experiments, in-test concentrations of DMSO were kept below 2%. Fluconazole (Alfa Aesar, Ward Hill, MA, USA) was tested as commercial antifungal.
Antifungal activity was evaluated by determining the MIC of compound 1 by the broth microdilution method, according to CLSI guidelines (reference documents M27-A3 for yeasts and M38-A2 for filamentous fungi). […] The minimal lethal concentration (MLC) was determined by spreading 20 μL of culture collected from wells showing no visible growth on SDA plates. The MLC was determined as the lowest concentration showing complete growth inhibition after 48 h at 35 degrees C., 48 h at 25 degrees C. […]

[1] = C. krusei ATCC 6258, intrinsically resistant to fluconazole

| SMILES | MIC [1] [µg/mL] | MLC [1] [µg/mL] | MIC (Pichia kudriavzevii, ATCC6258, read-out: MIC) [µg/mL] |
| --- | --- | --- | --- |
| C[C@H](CCC(=O)NCCN)[C@H]1CC[C@H]2[C@@H]3CC[C@@H]4C[C@H](O)CC[C@]4(C)[C@H]3C[C@H](O)[C@]12C [Compound 1, (R)—N-(2-aminoethyl)-4-((3R,5R,8R,9S,10S,12S,13R,14S,17R)-3,12-dihydroxy-10,13-dimethylhexadecahydro-1H-cyclopenta[a]phenanthren-17-yl) pentanamida] | 64 (≈ 147 µM) | 64 (≈ 147 µM) |  |
| OC(Cn1cncn1)(Cn1cncn1)c1ccc(F)cc1F [Fluconazole, reference compound] |  | >128 | 32 (≈ 104 µM) |
